Experimental data from the supplement of paper PMC10307832.

Columns and labels:
Assay in all cases: relative viability (nuclei count vs DMSO), 5 days (fraction); higher = more cells survive
CAL-12T = test system: CAL-12T
Procedure, shortened: (§1)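 Each reported value is a median over duplicate plates. It expresses relative viability: treated-well nuclei count divided by vehicle-well nuclei count. Lung cancer cell lines in 1536-well plates were dosed by pin tool a day after seeding, alone with one drug or with a fixed anchor-drug dose plus five library-drug doses (not always all listed) in √10 steps, and nuclei were counted after 5 days.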

NCI-H1650 = test system: NCI-H1650
Procedure, shortened: as §1

NCI-H2405 = test system: NCI-H2405
Procedure, shortened: as §1

LK-2 = test system: LK-2
Procedure, shortened: as §1

RERF-LC-KJ = test system: RERF-LC-KJ
Procedure, shortened: as §1

NCI-H2342 = test system: NCI-H2342
Procedure, shortened: as §1

NCI-H1755 = test system: NCI-H1755
Procedure, shortened: as §1

LCLC-97TM1 = test system: LCLC-97TM1
Procedure, shortened: as §1

NCI-H1355 = test system: NCI-H1355
Procedure, shortened: as §1

NCI-H1734 = test system: NCI-H1734
Procedure, shortened: as §1

PC-3 [JPC-3] = test system: PC-3 [JPC-3]
Procedure, shortened: as §1

NCI-H661 = test system: NCI-H661
Procedure, shortened: as §1

HCC-827 = test system: HCC-827
Procedure, shortened: as §1

NCI-H520 = test system: NCI-H520
Procedure, shortened: as §1

H3255 = test system: H3255
Procedure, shortened: as §1

PC-14 = test system: PC-14
Procedure, shortened: as §1

EKVX = test system: EKVX
Procedure, shortened: as §1

NCI-H1975 = test system: NCI-H1975
Procedure, shortened: as §1

NCI-H322M = test system: NCI-H322M
Procedure, shortened: as §1

NCI-H2228 = test system: NCI-H2228
Procedure, shortened: as §1

HCC-15 = test system: HCC-15
Procedure, shortened: as §1

CCN(CC)CCCCNc1ncc2cc(-c3cc(OC)cc(OC)c3)c(NC(=O)NC(C)(C)C)nc2n1 + Cc1cc(Nc2cc(N3CCN(C)CC3)nc(Sc3ccc(NC(=O)C4CC4)cc3)n2)n[nH]1 [Tozasertib] (partner 0.1 µM)
relative viability (CAL-12T; first compound 0.01 µM): 0.28
relative viability (CAL-12T; first compound 0.03162 µM): 0.287
relative viability (CAL-12T; first compound 0.1 µM): 0.368
relative viability (CAL-12T; first compound 0.3162 µM): 0.257
relative viability (CAL-12T; first compound 1 µM): 0.293
relative viability (NCI-H1650; first compound 0.01 µM): 0.362
relative viability (NCI-H1650; first compound 0.03162 µM): 0.305
relative viability (NCI-H1650; first compound 0.1 µM): 0.392
relative viability (NCI-H1650; first compound 0.3162 µM): 0.361
relative viability (NCI-H1650; first compound 1 µM): 0.247
relative viability (NCI-H2405; first compound 0.01 µM): 0.729
relative viability (NCI-H2405; first compound 0.03162 µM): 0.737
relative viability (NCI-H2405; first compound 0.1 µM): 0.699
relative viability (NCI-H2405; first compound 0.3162 µM): 0.733
relative viability (NCI-H2405; first compound 1 µM): 0.695
relative viability (LK-2; first compound 0.01 µM): 0.168
relative viability (LK-2; first compound 0.03162 µM): 0.196
relative viability (LK-2; first compound 0.1 µM): 0.184
relative viability (LK-2; first compound 0.3162 µM): 0.213
relative viability (LK-2; first compound 1 µM): 0.159
relative viability (RERF-LC-KJ; first compound 0.01 µM): 0.547
relative viability (RERF-LC-KJ; first compound 0.03162 µM): 0.617
relative viability (RERF-LC-KJ; first compound 0.1 µM): 0.51
relative viability (RERF-LC-KJ; first compound 0.3162 µM): 0.567
relative viability (RERF-LC-KJ; first compound 1 µM): 0.489
relative viability (NCI-H2342; first compound 0.01 µM): 0.448
relative viability (NCI-H2342; first compound 0.03162 µM): 0.513
relative viability (NCI-H2342; first compound 0.1 µM): 0.476
relative viability (NCI-H2342; first compound 0.3162 µM): 0.469
relative viability (NCI-H2342; first compound 1 µM): 0.537
relative viability (NCI-H1755; first compound 0.01 µM): 0.624
relative viability (NCI-H1755; first compound 0.03162 µM): 0.61
relative viability (NCI-H1755; first compound 0.1 µM): 0.607
relative viability (NCI-H1755; first compound 0.3162 µM): 0.622
relative viability (NCI-H1755; first compound 1 µM): 0.535
relative viability (LCLC-97TM1; first compound 0.01 µM): 0.236
relative viability (LCLC-97TM1; first compound 0.03162 µM): 0.268
relative viability (LCLC-97TM1; first compound 0.1 µM): 0.255
relative viability (LCLC-97TM1; first compound 0.3162 µM): 0.34
relative viability (LCLC-97TM1; first compound 1 µM): 0.236
relative viability (NCI-H1355; first compound 0.01 µM): 0.547
relative viability (NCI-H1355; first compound 0.03162 µM): 0.559
relative viability (NCI-H1355; first compound 0.1 µM): 0.52
relative viability (NCI-H1355; first compound 0.3162 µM): 0.531
relative viability (NCI-H1355; first compound 1 µM): 0.411
relative viability (NCI-H1734; first compound 0.01 µM): 0.136
relative viability (NCI-H1734; first compound 0.03162 µM): 0.257
relative viability (NCI-H1734; first compound 0.1 µM): 0.3
relative viability (NCI-H1734; first compound 0.3162 µM): 0.244
relative viability (NCI-H1734; first compound 1 µM): 0.243
relative viability (PC-3 [JPC-3]; first compound 0.01 µM): 0.988
relative viability (PC-3 [JPC-3]; first compound 0.03162 µM): 0.958
relative viability (PC-3 [JPC-3]; first compound 0.1 µM): 1.09
relative viability (PC-3 [JPC-3]; first compound 0.3162 µM): 0.892
relative viability (PC-3 [JPC-3]; first compound 1 µM): 0.632
relative viability (NCI-H661; first compound 0.01 µM): 0.38
relative viability (NCI-H661; first compound 0.03162 µM): 0.327
relative viability (NCI-H661; first compound 0.1 µM): 0.366
relative viability (NCI-H661; first compound 0.3162 µM): 0.36
relative viability (NCI-H661; first compound 1 µM): 0.36
relative viability (HCC-827; first compound 0.01 µM): 0.536
relative viability (HCC-827; first compound 0.03162 µM): 0.394
relative viability (HCC-827; first compound 0.1 µM): 0.423
relative viability (HCC-827; first compound 0.3162 µM): 0.547
relative viability (HCC-827; first compound 1 µM): 0.396
relative viability (NCI-H520; first compound 0.01 µM): 0.383
relative viability (NCI-H520; first compound 0.03162 µM): 0.452
relative viability (NCI-H520; first compound 0.1 µM): 0.486
relative viability (NCI-H520; first compound 0.3162 µM): 0.388
relative viability (NCI-H520; first compound 1 µM): 0.261
relative viability (H3255; first compound 0.01 µM): 0.91
relative viability (H3255; first compound 0.03162 µM): 0.654
relative viability (H3255; first compound 0.1 µM): 0.544
relative viability (H3255; first compound 0.3162 µM): 0.607
relative viability (H3255; first compound 1 µM): 0.585
relative viability (PC-14; first compound 0.01 µM): 0.689
relative viability (PC-14; first compound 0.03162 µM): 0.578
relative viability (PC-14; first compound 0.1 µM): 0.62
relative viability (PC-14; first compound 0.3162 µM): 0.685
relative viability (PC-14; first compound 1 µM): 0.598
relative viability (EKVX; first compound 0.01 µM): 0.475
relative viability (EKVX; first compound 0.03162 µM): 0.383
relative viability (EKVX; first compound 0.1 µM): 0.407
relative viability (EKVX; first compound 0.3162 µM): 0.558
relative viability (EKVX; first compound 1 µM): 0.366
relative viability (NCI-H1975; first compound 0.01 µM): 0.876
relative viability (NCI-H1975; first compound 0.03162 µM): 0.859
relative viability (NCI-H1975; first compound 0.1 µM): 1.1
relative viability (NCI-H1975; first compound 0.3162 µM): 0.992
relative viability (NCI-H1975; first compound 1 µM): 0.407
relative viability (NCI-H322M; first compound 0.01 µM): 0.717
relative viability (NCI-H322M; first compound 0.03162 µM): 0.49
relative viability (NCI-H322M; first compound 0.1 µM): 0.589
relative viability (NCI-H322M; first compound 0.3162 µM): 0.57
relative viability (NCI-H322M; first compound 1 µM): 0.448
relative viability (NCI-H2228; first compound 0.01 µM): 0.183
relative viability (NCI-H2228; first compound 0.03162 µM): 0.231
relative viability (NCI-H2228; first compound 0.1 µM): 0.319
relative viability (NCI-H2228; first compound 0.3162 µM): 0.258
relative viability (NCI-H2228; first compound 1 µM): 0.197
relative viability (HCC-15; first compound 0.01 µM): 0.45
relative viability (HCC-15; first compound 0.03162 µM): 0.311
relative viability (HCC-15; first compound 0.1 µM): 0.428
relative viability (HCC-15; first compound 0.3162 µM): 0.342
relative viability (HCC-15; first compound 1 µM): 0.247
